Measured values: patent US10669235B2, “Indole derivatives and their use as protein kinase inhibitors” (RESPIVERT LIMITED, priority 2016, dated 2020)
pIC50, pKi: −log10 of the molar value. Counter-ions that a name gives are not always drawn. Like-named read-outs stand apart in the source and are kept apart here.

Experiments:
PDGFRβ [1] = biological target: T1, PDGFRβ (Homo sapiens (Human), UniProt P09619); assay: PDGFRβ enzyme inhibition (ADP-Glo assay); assay type: biochemical; conditions: mean, n = 2 (nintedanib n = 34)
PDGFRβ [2] = biological target: T1, PDGFRβ; assay: PDGF-BB induced phosphorylation of PDGFRβ in fibroblasts (MRC5, HTRF); assay type: cell-based
PAMPA permeability assay = assay type: in vitro ADME; conditions: for Papp at 5 h, 10 µM: pH 7, 10 μM
[3] = Pharmacokinetic measurements in rats (i.v., i.t., oral); assay type: in vivo; conditions: rat; for concentration at 0.1 h / concentration at 1.5 h / concentration at 6 h / concentration at 24 h: lung; for concentration at 0.1 h: read-out: lung concentration (nM) at time 0.1 h; for concentration at 1.5 h: read-out: lung concentration (nM) at time 1.5 h; for concentration at 6 h: read-out: lung concentration (nM) at time 6 h; for concentration at 24 h: read-out: lung concentration (nM) at time 24 h
MRC5 cells = assay: Cell viability assay in MRC5 cells (MTT)
[4] = male, CD, other: intra-tracheal
[5] = i.t. dose 0.1 (nintedanib 0.42)
[6] = i.t. dose 0.1 (nintedanib 0.42), 0.1 h
[7] = i.t. dose 0.1 (nintedanib 0.42), 1.5 h
[8] = i.t. dose 0.1 (nintedanib 0.42), 6 h
[9] = i.t. dose 0.1 (nintedanib 0.42), 24 h
[10] = i.v. dose 0.1 (nintedanib 0.42), 0.1 h
[11] = i.v. dose 0.1 (nintedanib 0.42), 1.5 h
[12] = i.v. dose 0.1 (nintedanib 0.42), 6 h
[13] = i.v. dose 0.1 (nintedanib 0.42), 24 h

T1 sequence (P09619 33-1106): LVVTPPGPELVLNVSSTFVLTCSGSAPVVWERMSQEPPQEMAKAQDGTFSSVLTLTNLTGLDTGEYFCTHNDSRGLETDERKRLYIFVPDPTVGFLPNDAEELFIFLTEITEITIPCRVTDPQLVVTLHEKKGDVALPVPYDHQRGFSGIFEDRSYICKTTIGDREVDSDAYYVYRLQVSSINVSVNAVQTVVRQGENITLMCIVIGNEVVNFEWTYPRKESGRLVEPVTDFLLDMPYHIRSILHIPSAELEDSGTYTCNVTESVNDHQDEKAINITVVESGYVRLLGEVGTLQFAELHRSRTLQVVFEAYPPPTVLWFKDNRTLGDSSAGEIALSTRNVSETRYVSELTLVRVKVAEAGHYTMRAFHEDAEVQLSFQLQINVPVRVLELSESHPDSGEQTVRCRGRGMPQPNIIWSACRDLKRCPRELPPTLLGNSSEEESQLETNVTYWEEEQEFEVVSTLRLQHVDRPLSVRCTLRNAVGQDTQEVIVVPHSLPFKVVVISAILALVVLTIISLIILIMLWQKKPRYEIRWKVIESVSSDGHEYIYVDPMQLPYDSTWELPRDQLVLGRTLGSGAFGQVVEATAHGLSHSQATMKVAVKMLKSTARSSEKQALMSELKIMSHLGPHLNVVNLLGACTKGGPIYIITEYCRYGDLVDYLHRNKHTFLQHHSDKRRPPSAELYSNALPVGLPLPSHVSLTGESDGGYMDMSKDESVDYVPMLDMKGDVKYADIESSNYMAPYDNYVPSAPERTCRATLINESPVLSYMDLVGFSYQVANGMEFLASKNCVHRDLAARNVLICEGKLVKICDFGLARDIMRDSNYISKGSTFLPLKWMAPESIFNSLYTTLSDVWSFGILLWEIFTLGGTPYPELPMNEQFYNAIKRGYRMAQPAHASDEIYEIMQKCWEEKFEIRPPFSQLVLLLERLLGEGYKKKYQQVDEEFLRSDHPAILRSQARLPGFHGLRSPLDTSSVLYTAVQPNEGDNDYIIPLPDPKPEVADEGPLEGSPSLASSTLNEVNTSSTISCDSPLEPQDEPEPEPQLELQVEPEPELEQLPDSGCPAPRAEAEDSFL

## COC(=O)c1cc2c(cc1C)/C(=C(/Nc1ccc(C(=O)NCCN3CCNC(=O)C3)cc1)c1ccccc1)C(=O)N2 [Example 9, (Z)-Methyl 5-methyl-2-oxo-3-(((4-((2-(3-oxopiperazin-1-yl)ethyl)carbamoyl)phenyl)amino) (phenyl)methylene)indoline-6-carboxylate]
PDGFRβ [1]
  pKi: 8.10
PDGFRβ [2]; MRC5 cells, PDGFBB stimulation, read-out: PDGFBB-induced PDGFRβ phosphorylation in MRC5 cells (IC50)
  pIC50: 7.85
PAMPA permeability assay; pH 7, PAMPA
  recovery at 5 hr, 10 μM: 72.7%
  Papp at 5 h, 10 µM: 0.0146 ×10⁻⁶ cm/s
[3]; male, CD, iv
  concentration at 0.1 h: 494 nM
  concentration at 1.5 h: 174 nM
  concentration at 6 h: 235 nM
  concentration at 24 h: 502 nM
[3]; [4]
  concentration at 0.1 h: 5700 nM
  concentration at 1.5 h: 8810 nM
  concentration at 6 h: 10500 nM
  concentration at 24 h: 10500 nM
[3]; male, CD, lung/plasma, iv, read-out: lung/plasma ratio at time 0.1 h
  Kp at 0.1 h: 17
[3]; male, CD, lung/plasma, iv, read-out: lung/plasma ratio at time 1.5 h
  Kp at 1.5 h: 55
[3]; male, CD, lung/plasma, iv, read-out: lung/plasma ratio at time 6 h
  Kp at 6 h: > 326
[3]; male, CD, lung/plasma, iv, read-out: lung/plasma ratio at time 24 h
  Kp at 24 h: > 697
[3]; male, CD, lung/plasma, other: intra-tracheal, read-out: lung/plasma conc ratio at time 0.1 h
  Kp at 0.1 h: > 7890
[3]; male, CD, plasma, iv
  MRT: 1.1 h
  clearance: 90 mL/min/kg
  half-life: 1.1 h
[3]; male, CD, plasma, iv, read-out: Vss
  Vd: 7 L/kg
[3]; 0.1 h
  Lung conc i.t./i.v. Ratio at time 0.1 h: 12
[3]; 1.5 h
  Lung conc i.t./i.v. Ratio at time 1.5 h: 51
[3]; 6 h
  Lung conc i.t./i.v. Ratio at time 6 h: 45
[3]; 24 h
  Lung conc i.t./i.v. Ratio at time 24 h: 21
[3]; [5]
  i.t. BAV (%): <40%
[3]; [6]
  BAL % administered dose at time 0.1 h: 13.7%
[3]; [7]
  BAL % administered dose at time 1.5 h: 5.2%
  lung/plasma conc ratio at time 1.5 h: >12197
[3]; [8]
  BAL % administered dose at time 6 h: 2.3%
  lung/plasma conc ratio at time 6 h: >14485
[3]; [9]
  BAL % administered dose at time 24 h: 0.5%
  lung/plasma conc ratio at time 24 h: >14483
[3]; [10]
  BAL % administered dose at time 0.1 h: BQL
[3]; [11]
  BAL % administered dose at time 1.5 h: BQL
[3]; [12]
  BAL % administered dose at time 6 h: BQL
[3]; [13]
  BAL % administered dose at time 24 h: BQL
[3]; oral dose 3 mg/kg
  Oral BAV (%): <2%
MRC5 cells
  Cell viability at 100 nM (%): 102%
  Cell viability at 300 nM (%): 103.6%
  Cell viability at 1000 nM (%): 97.5%

## COC(=O)c1cc2c(cc1C)/C(=C(/Nc1ccc(C(=O)NC3CCN(C)CC3)cc1)c1ccccc1)C(=O)N2 [Example 18, (Z)-Methyl-5-methyl-3-(((4-((1-methylpiperidin-4-yl)carbamoyl)phenyl)amino)(phenyl)methylene)-2-oxoindoline-6-carboxylate, formate]
PDGFRβ [1]
  pKi: 8.10
PDGFRβ [2]
  pIC50: 7.77
PAMPA permeability assay; pH 7
  recovery at 5 hr, 10 μM: 84.5%
PAMPA permeability assay
  Papp at 5 h, 10 µM: 0.00383 ×10⁻⁶ cm/s
[3]; male, CD, iv
  concentration at 0.1 h: 638 nM
  concentration at 1.5 h: 306 nM
  concentration at 6 h: 201 nM
[3]; [4]
  concentration at 0.1 h: 6530 nM
  concentration at 1.5 h: 5990 nM
  concentration at 6 h: 2350 nM
  concentration at 24 h: 4520 nM
[3]; male, CD, plasma, iv
  half-life: 5.1 h
[3]; [5]
  i.t. BAV (%): 39%
[3]; [6]
  BAL % administered dose at time 0.1 h: 6.7%
[3]; [7]
  BAL % administered dose at time 1.5 h: 2.2%
[3]; [8]
  BAL % administered dose at time 6 h: 0.4%
[3]; [9]
  BAL % administered dose at time 24 h: 0.3%
[3]; [10]
  BAL % administered dose at time 0.1 h: 0.13%
[3]; [11]
  BAL % administered dose at time 1.5 h: 0%
[3]; [12]
  BAL % administered dose at time 6 h: BQL
[3]; [13]
  BAL % administered dose at time 24 h: BQL
MRC5 cells
  Cell viability at 100 nM (%): 98.2%
  Cell viability at 300 nM (%): 97.3%
  Cell viability at 1000 nM (%): 91.8%
